In publication PMC4971421, “Redox-Dependent Modulation of T-Type Ca^2+ Channels in Sensory Neurons Contributes to Acute Anti-Nociceptive Effect of Substance P” (Antioxidants & Redox Signaling, 2016):

Tests used:
[1] = system: N-type VGCCs; conditions: 1 μM; cited from earlier work
[2] = system: rat hind paw; test: Hargreaves test, paw withdrawal latency to noxious heat; format: in vivo; conditions: hind-paw injection 50 μl; 0.005–0.5 nmol/site; 8 min after injection
Procedure: For measurement of thermal hyperalgesia, the change in the latency of hind-paw withdrawal in response to noxious heat was recorded using the Hargreaves’ plantar method (Ugo Basile) at 8 min after the hind-paw injection of drugs; the heat source was set to 25% of the maximal intensity.

[3] = system: small-diameter DRG neurons; test: DRG neuron excitability, perforated patch current clamp; format: cell-based, rat
Procedure: To knock down CaV3.2, DRGs were dissociated as described ([13]); immediately after dissociation, DRG pellets were resuspended in 900 μl DMEM (without GlutaMax I, serum or antibiotics), to which a mixture of 9 μl Lipofectamine RNAiMAX (Invitrogen) and either a mix of three anti-Cacna1h Stealth siRNAs (RSS350285, RSS350286, RSS350287; Life Technologies; 200 nM each) or a scrambled control oligo (Stealth RNAi™ siRNA Negative Control; Life Technologies; 200 nM) were added immediately before resuspension. Cultures were than plated in 50 μl droplets onto glass coverslips that were coated with poly-D-lysine and incubated for 5–6 h; the transfection media were then replaced with full DRG culture medium. Patch-clamp recordings were conducted 24–48 h after the transfection. The following primers were used for reverse transcription polymerase chain reaction (RT-PCR) analysis: • Cacna1h sense: 5′-[…]-3′ • Cacna1h AS: 5′-[…]-3′ • Gapdh sense: 5′-[…]-3′ • Gapdh AS: 5′-[…]-3′
Neuronal excitability was studied using the amphotericin B-perforated patch-clamp current technique ([13]). The extracellular solution contained the following (in mM): 160 NaCl, 2.5 KCl, 5 CaCl2, 1 MgCl2, 10 HEPES, and 8 Glucose. The intracellular solution contained the following (in mM): 145 KCl, 15 NaCl, 5 MgCl2, 10 HEPES, and 250 μg/ml Amphotericin B. The access resistance was typically within […]. APs were generated by an injection of 200 pA current for 1 s from a holding current of 0 pA. Rheobase was determined from a train of current steps from 0 to 400 pA delivered in 20-pA increments. Current clamp recordings were sampled at 12.5 kHz. Bridge balance adjustments were not applied, since only relative changes in Erest, AP number, and rheobase were investigated.

[4] = system: T-type Ca^2+ channels (LVA Ca^2+ current) in DRG neurons; test: LVA (T-type) Ca2+ current, whole-cell patch clamp, cultured small-diameter DRG neurons; format: cell-based, rat; conditions: 1 μM; mean ± SEM, n = 7; SEM
Procedure: (§1) DRG neurons from adult male Sprague–Dawley rats (170–180 g) were dissociated as previously described ([13], [29]) and cultured in DMEM supplemented with GlutaMax I, 10% fetal calf serum, penicillin (50 U/ml), and streptomycin (50 μg/ml) on glass coverslips that were coated with poly-D-lysine for 2–5 days in a humidified incubator (37°C, 5% CO2). No growth factors were added to the culture media. HEK 293 cells were cultured in the same DMEM media; cells were passaged every 2 days. Human NK1 receptor (GenBank accession No. AY462098) complementary DNA (cDNA) was from the Missouri Science and Technology cDNA Resource Center. WtCaV3.1 (GenBank accession No. AF027984), wtCaV3.2 (GenBank accession No. AF051946), CaV3.1Q172H, and CaV3.2H191Q were kindly provided by Dr E. Perez-Reyes (University of Virginia). HEK293 cells were transfected using Lipofectamine 2000 (Invitrogen) according to the manufacturer's instructions. ST101 was synthesized in house; Z944 was from Toronto Research Chemicals; PTX was from Enzo Life Science; and FluoZin-3AM was from Life Technologies. All other chemicals were from Sigma.
All recordings were made using Multiclamp 700B amplifier in combination with pCLAMP 10.4 software (Molecular Devices). Voltage-clamp recordings from DRG neurons were made using whole-cell patch clamp. The standard bath solution contained the following (in mM): 150 TEA-Cl; 2.5 CsCl; 2.5 CaCl2; 10 HEPES; 0.5 MgCl2; and 10 glucose (pH 7.4 adjusted with CsOH). The standard pipette solution contained the following (in mM): 110 CsCl; 3 MgCl2; 10 EGTA; 10 HEPES; 3 Mg-ATP; and 0.6 GTP (pH 7.4 adjusted with CsOH). The access resistance was typically within 4–8 MΩ. T-type calcium currents (LVA) were measured by 50 ms square voltage pulses to −40 mV from a holding potential of −90 mV. HVA currents were measured by 200 ms square voltage pulses to 0 mV from a holding potential of −90 mV.
where y is the current inhibition; A1 and A2 are the maximum and minimum effects, respectively; x is the S9SP concentration; and nH is the Hill coefficient.

[5] = system: high-voltage-activated (HVA) Ca^2+ currents in DRG neurons; test: HVA Ca2+ current, whole-cell patch clamp, DRG neurons; format: cell-based, rat; conditions: 1 μM
Procedure: as §1, with “ST101 was synthesized in house; Z944 was from Toronto Research Chemicals; PTX was from Enzo Life Science; and FluoZin-3AM was from Life Technologies. All other chemicals were from Sigma.” left out
All recordings were made using Multiclamp 700B amplifier in combination with pCLAMP 10.4 software (Molecular Devices). […] T-type calcium currents (LVA) were measured by 50 ms square voltage pulses to −40 mV from a holding potential of −90 mV. HVA currents were measured by 200 ms square voltage pulses to 0 mV from a holding potential of −90 mV.

[6] = system: L-type VGCCs; conditions: 1 μM; cited from earlier work
Procedure: (§2) The T-type Ca^2+ current is an important regulator of sensory neuron excitability ([10], [17], [18], [20], [23], [24], [51], [71], [75]). […] Z944 (1 μM) inhibited LVA curren ...

[7] = system: CaV3; conditions: read-out: IC50, CaV3 inhibition; cited from earlier work
Procedure: as §2

[8] = system: Nav1.5; conditions: 1 μM; cited from earlier work
[9] = system: rat hind paw; test: von Frey test; format: in vivo; conditions: 50 μl; 0.5 nmol/site; filaments 2–15 g; 8 min after injection
Procedure: For measurement of sensitivity to gentle touch and mechanical hyperalgesia, two methods were used. (i) Cotton swab test was performed as previously described ([53]). Briefly, rats were allowed to acclimate in a cage with a wire mesh bottom for at least 30 min and then were manually probed with a “cotton swab” pulled from a Q-tip (to approximately three times the original size). A swab was applied in a sweeping motion underneath the rats’ paws, and the withdrawal responses were recorded. Five sweeps were applied in each test, with at least 10 s between each sweep; withdrawal score was calculated as a percentage of positive responses. (ii) The von Frey test was performed using a calibrated range of filaments with different bending forces (2, 4, 6, 8, 10, and 15 g; Stoelting Co.). A single filament was applied perpendicularly to the plantar surface of the hind paw for five times, with an interval of 5 s, and it was scored for withdrawal responses. Each force was probed five times, the number of withdrawals out of five trials was counted, and the percentage of withdrawal responses was calculated. Both types of assays were performed 8 min after the hind-paw drug injection.

CC(C)(C)NC(=O)CN1CCC(CNC(=O)c2cc(F)cc(Cl)c2)CC1 [Z944, N-[[1-[2-(tert-butylamino)-2-oxoethyl]piperidin-4-yl]methyl]-3-chloro-5-fluorobenzamide]
effect on N-type VGCCs [1]: no significant effect
paw withdrawal latency on radiant heat exposure [2]: significantly increased
AP amplitude or duration [3]: without significantly affecting
resting membrane potential (Erest) [3]: hyperpolarized
action potential (AP) firing ([3]; 200 pA for 1 s): decreased
effects of BK on the rheobase and the AP number when co-applied with BK ([3]; BK 250 nM): completely reversed
rheobase ([3]; current steps 0–400 pA in 20-pA increments): significantly increased
small DRG neuron excitability ([3]; perforated current clamp): decreased
effect on Erest, AP number, or rheobase in Cacna1h knocked-down neurons ([3]; siRNA against Cacna1h): neither Z994 nor ST101 produced any significant effect
inhibition of LVA current [4]: 71.4% ± 2.7%
effect on HVA current [5]: without a noticeable effect
effect on L-type VGCCs [6]: no significant effect
IC50 [7]: ~50 nM
effect on Nav1.5 [8]: no significant effect
response to von Frey filament stimulation [9]: significantly impaired their ability to respond to stimulation
